Values joined by “and” are separate entries in the source; they are usually repeats but may differ in a detail not shown here. Identical values can stand only once.
Experiment: isobaric coefficient of expansion
Conditions: Liquid, expansion method

CO [methanol]
Conditions	isobaric coefficient of expansion
196.17 K, 590 kPa	0.00112 1/K
196.97 K, 80030 kPa	0.000894 1/K
198.11 K, 590 kPa	0.00112 1/K
199.3 K, 80030 kPa	0.000894 1/K
200.13 K, 590 kPa	0.00112 1/K
201.61 K, 80030 kPa	0.000891 1/K
202.14 K, 590 kPa	0.00112 1/K and 0.00113 1/K
203.94 K, 80030 kPa	0.000891 1/K
204.09 K, 590 kPa	0.00112 1/K
206.06 K, 590 kPa	0.00112 1/K
206.3 K, 80030 kPa	0.000888 1/K
208.02 K, 590 kPa	0.00112 1/K
208.16 K, 20010 kPa	0.00105 1/K
208.68 K, 80030 kPa	0.000886 1/K
209.97 K, 590 kPa	0.00112 1/K and 0.00114 1/K
210.16 K, 20010 kPa	0.00104 1/K
210.17 K, 45100 kPa	0.000966 1/K
211.07 K, 80030 kPa	0.000883 1/K
211.93 K, 590 kPa	0.00111 1/K and 0.00112 1/K
212.17 K, 20010 kPa	0.00104 1/K
212.17 K, 45100 kPa	0.000968 1/K
213.46 K, 80030 kPa	0.00088 1/K
213.91 K, 590 kPa	0.00112 1/K and 0.00111 1/K
214.17 K, 20010 kPa	0.00104 1/K
214.17 K, 45100 kPa	0.000963 1/K
215.9 K, 590 kPa	0.00112 1/K
216 K, 80030 kPa	0.000874 1/K
216.17 K, 20010 kPa	0.00104 1/K
216.17 K, 45100 kPa	0.000964 1/K
217.87 K, 590 kPa	0.00112 1/K
218.17 K, 20010 kPa	0.00104 1/K
218.18 K, 45100 kPa	0.000965 1/K
218.19 K, 590 kPa	0.00111 1/K
219.84 K, 590 kPa	0.00112 1/K
220.16 K, 590 kPa	0.00113 1/K
220.18 K, 20010 kPa	0.00104 1/K
220.18 K, 45100 kPa	0.000962 1/K
220.38 K, 80030 kPa	0.000872 1/K
221.82 K, 590 kPa	0.00111 1/K
222.14 K, 590 kPa	0.00111 1/K
222.17 K, 20010 kPa	0.00104 1/K
222.18 K, 45100 kPa	0.000966 1/K
222.8 K, 80030 kPa	0.000867 1/K
223.82 K, 590 kPa	0.00112 1/K
224.15 K, 590 kPa	0.00111 1/K
224.17 K, 20010 kPa	0.00104 1/K
224.17 K, 45100 kPa	0.00096 1/K
225.25 K, 80030 kPa	0.000863 1/K
225.86 K, 590 kPa	0.00111 1/K
226.15 K, 590 kPa	0.00112 1/K
226.16 K, 45100 kPa	0.000962 1/K
226.17 K, 20010 kPa	0.00104 1/K
227.72 K, 80030 kPa	0.000861 1/K
227.95 K, 590 kPa	0.00112 1/K
228.15 K, 590 kPa	0.00112 1/K
228.16 K, 20010 kPa	0.00104 1/K
228.16 K, 45100 kPa	0.000958 1/K
230.04 K, 590 kPa	0.00111 1/K
230.16 K, 20010 kPa	0.00105 1/K
230.17 K, 590 kPa	0.00112 1/K
230.17 K, 45100 kPa	0.000957 1/K
230.17 K, 80030 kPa	0.00086 1/K
232.14 K, 590 kPa	0.00112 1/K
232.17 K, 20010 kPa	0.00104 1/K
232.17 K, 45100 kPa	0.000959 1/K
232.18 K, 590 kPa	0.00113 1/K
232.57 K, 80030 kPa	0.000869 1/K
234.16 K, 590 kPa	0.00113 1/K
234.17 K, 20010 kPa	0.00103 1/K
234.17 K, 45100 kPa	0.000956 1/K
234.19 K, 590 kPa	0.00112 1/K
234.98 K, 80030 kPa	0.000859 1/K
236.16 K, 590 kPa	0.00112 1/K
236.17 K, 20010 kPa	0.00104 1/K
236.17 K, 45100 kPa	0.000953 1/K
236.18 K, 590 kPa	0.00112 1/K
237.42 K, 80030 kPa	0.00086 1/K
238.17 K, 590 kPa	0.00112 1/K
238.17 K, 20010 kPa	0.00103 1/K
238.17 K, 45100 kPa	0.000949 1/K
239.85 K, 80030 kPa	0.000855 1/K
240.17 K, 590 kPa	0.00112 1/K
240.17 K, 45100 kPa	0.000949 1/K
240.25 K, 20010 kPa	0.00103 1/K
242.17 K, 590 kPa	0.00112 1/K
242.17 K, 45100 kPa	0.000942 1/K
242.25 K, 20010 kPa	0.00103 1/K
242.29 K, 80030 kPa	0.000853 1/K
244.18 K, 590 kPa	0.00112 1/K
244.18 K, 45100 kPa	0.000941 1/K
244.19 K, 20010 kPa	0.00103 1/K
244.74 K, 80030 kPa	0.000851 1/K
246.19 K, 590 kPa	0.00112 1/K
246.19 K, 20010 kPa	0.00104 1/K
247.21 K, 80030 kPa	0.000847 1/K
248.17 K, 20010 kPa	0.00104 1/K

From the NIST ThermoML archive (doi:10.1021/je060415l)
